Consider 2 compounds from ChEMBL document CHEMBL1150858, “Two new cytotoxic and virucidal trisulfated triterpene glycosides from the Antarctic sea cucumber Staurocucumis liouvillei” (J Nat Prod, 2001).

For one data set, the system named is Human alphaherpesvirus 1. Briefly: Antiviral activity against HSV1 KOS in african green monkey Vero cells assessed as residual infectivity at 10 ug/mL by plaque formation assay. It is filed as functional.
The test system of data set [1] is Vero. Kind of data set: Cytotoxicity against african green monkey Vero cells at 6.25 to 50 ug/mL within 8 hrs by MTT assay. Conditions: chlorocebus sabaeus. The data set is classed as cell-based. For orientation: Formazan colour is commonly taken as a measure of viable cells.
Data set [2] deals with Vero. Kind of data set: Cytotoxicity against african green monkey Vero cells at 6.25 to 50 ug/mL measured after prolonged incubation by MTT assay. The data set is classed as cell-based. As to conditions: chlorocebus sabaeus.

The structures appear in SMILES notation.

Regarding `CO[C@@H]1[C@@H](O)[C@H](O[C@@H]2[C@@H](O)[C@H](O[C@H]3[C@H](O)[C@@H](O)[C@H](O[C@H]4[C@H](O[C@H]5CC[C@]6(C)[C@H]7CC[C@]89C(=O)O[C@@](C)(CCC=C(C)C)[C@H]8[C@@H](OC(C)=O)C[C@@]9(C)C7=CC[C@H]6C5(C)C)OC[C@@H](OS(=O)(=O)[O-])[C@@H]4O)O[C@@H]3C)O[C@H](COS(=O)(=O)[O-])[C@H]2O)O[C@H](COS(=O)(=O)[O-])[C@H]1O.[Na+].[Na+].[Na+]` [LIOUVILLOSIDE A], the Activity was 24% in the data set on Human alphaherpesvirus 1, “Non-toxic” in the data set with Vero [1] and “Toxic” with Vero [2].

`CO[C@@H]1[C@@H](O)[C@H](O[C@@H]2[C@@H](O)[C@H](O[C@H]3[C@H](O)[C@@H](O)[C@H](O[C@H]4[C@H](O[C@H]5CC[C@]6(C)[C@H]7CC[C@]89C(=O)O[C@@](C)(CCCC(C)C)[C@H]8[C@@H](OC(C)=O)C[C@@]9(C)C7=CC[C@H]6C5(C)C)OC[C@@H](OS(=O)(=O)[O-])[C@@H]4O)O[C@@H]3C)O[C@H](COS(=O)(=O)[O-])[C@H]2O)O[C@H](COS(=O)(=O)[O-])[C@H]1O.[Na+].[Na+].[Na+]` [LIOUVILLOSIDE B]: the Activity in the data set with Human alphaherpesvirus 1 is recorded as 2.5%; in the data set with Vero [1], “Non-toxic”; with Vero [2] it was “Toxic”.
